What was measured:
[1] = system: IMR90-1; experiment: Count of differentiated cardiomyocytes after culture under PFCD condition; type: cell-based, human; settings: IMR90-1, PFCD suspension culture, day 14; FIG. 3d
Source text: The differentiated cardiomyocytes was counted in the cell population from suspension or adhesion culture under PFCD condition of the pluripotent stem cell lines. The counts of differentiated cells per 2×10^6 undifferentiated cells are shown in the graph of FIG. 2d. The differentiation was more induced by suspension culture than adhesion culture in most of the stem cell lines. The cell count, as well as the flow cytometry, was taken on day 14.
To determine the contribution of each of the six compounds (CHIR99021, PMA, KY03-I, XAV939, AG1478, and A419259) to PFCD under suspension culture condition, IMR90-1 (from culture on MEF feeder) was cultured in media to which different combinations of five of the compounds were added. Cells from the culture were analyzed by flow cytometry using a cTnT antibody for staining. A part of the cells from culture were not treated with the primary antibody to serve as a negative control. Thirty thousand cells from each sample were loaded to a flow cytometer FACSCantoII.
The differentiated cardiomyocytes was counted in a cultured cell population corresponding to that of FIG. 3c. […] The cell count, as well as the flow cytometry, was taken on day 14.

[2] = system: mesoderm-related genes (MSGN1, T, MIXL1 and NODAL); experiment: Quantitative PCR for expression of mesoderm-related genes under PFCD condition; type: cell-based, human; settings: IMR90-1; for expression of the mesoderm-related genes (MSGN1, T, MIXL1 and NODAL) vs DMSO control: 2 μM CHIR99021 or 0.3 μM PMA alone, day 0 to day 2, mRNA on day 2, FIG. 3e; for expression level of NODAL / expression of MSGN1, T and MIXL1: 1 μM XAV939, 0.3 μM A419259, 10 μM AG1478, 3 μM KY03-I, day 3 to day 4, mRNA on day 4, FIG. 3f
Protocol: A human iPS cell line (IMR90-1 cultured on MEF feeder) was cultured in PFCD culture media, to which 2 μM CHIR99021 or 0.3 μM PMA or the both (CHIR99021+PMA) were added for early phase of cardiac differentiation (day 0 to day 2). On day 2, mRNA was extracted the cultured cells and analyzed by quantitative PCR for the expression of mesoderm-related genes (MSGN1, T, MIXL1 and NODAL) (FIG. 3e). As a control, cells were cultured similarly, but with DMSO in place of the test compounds. The gene expression level in the control cells was assigned to one. […] In contrast, the expression of the genes was reduced when PMA was added to the culture. However, the reduction in gene expression by PMA was counteracted and reversed when CHIR99021 was added in combination with PMA (in accordance with the optimal PFCD condition).
A human iPS cell line (IMR90-1 from culture on MEF feeder) was cultured in PFCD media with one of 1 μM XAV939, 0.3 μM A419259, 10 μM AG1478 or 3 μM KY03-I, or all of them (XAV939+A419259+AG1478+KY03-I) in late phase of cardiac differentiation (day 3 to day 4). On day 4, mRNA was extracted from the cultured cells and analyzed by quantitative PCR for the expression of mesoderm-related genes (MSGN1, T, MIXL1 and NODAL) (FIG. 3f).

[3] = system: monkey ES cell line transfected with an αMHC promoter-driven GFP gene; experiment: Chemical screening: GFP fluorometry for cardiac differentiation of monkey ES cells; type: cell-based, cynomolgus monkey; settings: alone or in combination with KY02111 (10 μM in late phase)
[4] = system: monkey ES cell line transfected with an α-MHC promoter-driven GFP gene; settings: culture with PMA (all six compounds); without PMA (other five compounds) only weak fluorescence; FIG. 3a
Source text: A monkey ES cell line transfected with an α-MHC promoter-driven GFP gene was suspension cultured under PFCD condition in culture media with PMA (with all the six compounds added) or without PMA (with the five compounds other than PMA added) (FIG. 2a). The cells from the culture with PMA are shown in the left-hand micrographs, and the cells from the culture without PMA are shown in the right-hand micrographs.

[5] = system: monkey ES cell line transfected with an αMHC promoter-driven GFP gene; experiment: Chemical screening: GFP fluorometry for cardiac differentiation of monkey ES cells; type: cell-based, cynomolgus monkey; settings: for intensity of GFP fluorescence relative to control culture (KY02111 only, assigned to one): GFP fluorometry day 9; for cardiac differentiation (screening conclusion): under appropriate conditions, Table 1
Protocol: Pluripotent stem cells were cultured in culture media to which the test compounds were added in different concentrations (0.3 μM, 1 μM, 3 μM and 10 μM) in early phase and late phase of differentiation of the cells. Cells from the culture were subjected to GFP fluorometry in accordance with the cardiac differentiation protocol shown in FIG. 1a. Besides the test compounds, 10 μM KY02111 was included in the culture media for the late phase differentiation. The intensity of GFP fluorescence determined in the cells from the control culture, which was cultured with no test compound other than KY02111, was assigned to one.
The scheme of chemical screening is illustrated in FIG. 1a. Compounds were screened for the ability of increasing GFP fluorescence compared with the control (KY02111 alone) using a monkey ES cell line transfected with an αMHC promoter-driven GFP gene (Minami et al., Cell Reports 2, 1448-1460, 2012, which is incorporated herein by reference). The ES cell line was derived from a monkey ES cell line (cynomolgus monkey CMK6.4) by transfecting the cells with a vector which expresses green fluorescent protein (GFP) under control by a promoter of α-MHC gene (a marker of cardiac differentiation). The cells were plated at 4.0×10^5 cells per well in 6 well plates (Asahi Glass/5816-006: Ezview culture plates) and cultured for nine days in an IMDM-based medium for cardiac differentiation (200 ml IMDM medium (Sigma 13390), with 50 ml calf serum (GIBCO 10099-141), 2.5 ml MEM non-essential amino acid solution (Sigma M7145), 2.5 ml penicillin-streptomycin ([…]), 2.5 ml 200 mM L-glutamine, 2 ul 2-mercaptoethanol (Sigma M7522), and 255 ul 5N NaOH). Each test compound was added to the medium at different concentrations in the early phase (day 0 to day 3) and the late phase (day 4 to day 7) of cardiac differentiation. Cells obtained from the culture on day 9 were subjected to GFP fluorometry with a Metamorph imaging system. […]

[6] = Induction of cardiac differentiation by a procedure as described in the Examples in WO 2012/026491; type: cell-based
[7] = system: cells from suspension or adhesion culture of IMR90-1 under PFCD condition; experiment: Whole-cell patch clamp electrophysiology of PFCD cardiomyocytes; type: cell-based, human; settings: IMR90-1 PFCD cardiomyocytes, day 30; FIG. 4k
Source text: Comparison was made between cells from suspension culture and cells from adhesion culture in terms of electrophysiology of cells by using a whole-cell patch clamp technique. For this purpose, IMR90-1 (from culture on MEF feeder) was suspension or adhesion cultured under PFDC condition. Cells were harvested on day 30 for the analysis. In action potential waveforms in the cells from suspension culture and the cells from adhesion culture, there was no significant difference between the cell populations in terms of RP (resting potential; around −60 mV) (FIGS. 4d and 4e) and APD90 (action potential duration; about 0.7 sec) (FIGS. 4d and 4g). […] ICa (Voltage-gated Ca channel current) was also higher in the cells from suspension culture than the cells from adhesion culture, but the difference was not significant (FIG. 4i). […] IKs (KCQN1 channel current) was higher in the cells from suspension culture than the cells from adhesion culture (FIG. 4j).

[8] = 10 to 30 μM in late phase, FIG. 1d
[9] = test compound 0.3 μM in Early phase (day 0 to day 3), 10 μM KY02111 in late phase
[10] = test compound 0.3 μM in Late phase (day 4 to day 7) with 10 μM KY02111
[11] = test compound 1 μM in Early phase (day 0 to day 3), 10 μM KY02111 in late phase
[12] = test compound 1 μM in Late phase (day 4 to day 7) with 10 μM KY02111
[13] = test compound 3 μM in Early phase (day 0 to day 3), 10 μM KY02111 in late phase
[14] = test compound 3 μM in Late phase (day 4 to day 7) with 10 μM KY02111
[15] = test compound 10 μM in Early phase (day 0 to day 3), 10 μM KY02111 in late phase
[16] = test compound 10 μM in Late phase (day 4 to day 7) with 10 μM KY02111

## Cc1c[nH]c(-c2cnc(NCCNc3ccc(C#N)cn3)nc2-c2ccc(Cl)cc2Cl)n1 [CHIR99021]
[1]
  cardiomyocyte count on omission of the compound from the six-compound culture: significant reduction
[2]
  expression of the mesoderm-related genes (MSGN1, T, MIXL1 and NODAL) vs DMSO control: significantly increased

## COc1cc2ncnc(Nc3ccc(F)c(Cl)c3)c2cc1OCCCN1CCOCC1 [gefitinib]
[3]; [8]
  increase of cardiac differentiation: two- to three-fold

## Oc1nc(-c2ccc(C(F)(F)F)cc2)nc2c1CSCC2 [XAV939]
[2]
  expression level of NODAL: not significantly different
  expression of MSGN1, T and MIXL1: reduced

## CCCCCCCCCCCCCC(=O)O[C@@H]1[C@@H](C)[C@@]2(O)[C@@H](C=C(CO)C[C@]3(O)C(=O)C(C)=C[C@@H]23)[C@@H]2C(C)(C)[C@]12OC(C)=O [PMA, Phorbol 12-myristate 13-acetate]
[1]
  cardiomyocyte count on omission of the compound from the six-compound culture: significant reduction
[4]
  GFP fluorescence of colonies: mostly GFP-positive
[2]
  expression of the mesoderm-related genes (MSGN1, T, MIXL1 and NODAL) vs DMSO control: reduced
[3]; 0.03 to 0.3 μM in early phase, FIG. 1c
  increase of cardiac differentiation: three- to eight-fold

## CN1CCN(C2CCC(n3cc(-c4ccc(Oc5ccccc5)cc4)c4c(N)ncnc43)CC2)CC1 (centres unmarked) [A419259]
[5]; 1 to 3 μM in late phase, alone or in combination with KY02111 (10 μM in late phase), FIG. 1e
  increase of cardiac differentiation: two- to five-fold
[5]; [9]
  intensity of GFP fluorescence relative to control culture (KY02111 only, assigned to one): 0.15
[5]; [10]
  intensity of GFP fluorescence relative to control culture (KY02111 only, assigned to one): 1.7
[5]; [11]
  intensity of GFP fluorescence relative to control culture (KY02111 only, assigned to one): 0.01
[5]; [12]
  intensity of GFP fluorescence relative to control culture (KY02111 only, assigned to one): 5.56
[5]; [13]
  intensity of GFP fluorescence relative to control culture (KY02111 only, assigned to one): 0
[5]; [14]
  intensity of GFP fluorescence relative to control culture (KY02111 only, assigned to one): 4.8
[5]; [15]
  intensity of GFP fluorescence relative to control culture (KY02111 only, assigned to one): 0
[5]; [16]
  intensity of GFP fluorescence relative to control culture (KY02111 only, assigned to one): 0.32
[5]
  cardiac differentiation (screening conclusion): promoted
[2]
  expression level of NODAL: not significantly different
  expression of MSGN1, T and MIXL1: reduced

## COc1ccc(CCC(=O)Nc2nc3ccc(I)cc3s2)cc1OC [KY02-I, 2-(3-(3,4-dimethoxyphenyl)propanamido)-6-iodobenzothiazole]
[6]
  effect of inducing cardiac differentiation: found to have the effect of inducing cardiac differentiation

## Cc1cccc(CCN2CCC(C(=O)c3ccc(NS(C)(=O)=O)cc3)CC2)n1 [E4031]
[7]
  increase in APD90, cells from suspension culture compared with cells from adhesion culture: not significantly different

## COc1ccc(CCCC(=O)Nc2nc3ccc(I)cc3s2)cc1OC [KY03-I, 2-(4-(3,4-dimethoxyphenyl)propanamido)-6-iodobenzothiazole]
[6]
  effect of inducing cardiac differentiation: found to have the effect of inducing cardiac differentiation
[2]
  expression level of NODAL: not significantly different
  expression of MSGN1, T and MIXL1: reduced

## COc1cc2ncnc(Nc3cccc(Cl)c3)c2cc1OC [AG1478]
[5]; [9]
  intensity of GFP fluorescence relative to control culture (KY02111 only, assigned to one): 0.97
[5]; [10]
  intensity of GFP fluorescence relative to control culture (KY02111 only, assigned to one): 1.24
[5]; [11]
  intensity of GFP fluorescence relative to control culture (KY02111 only, assigned to one): 0.89
[5]; [12]
  intensity of GFP fluorescence relative to control culture (KY02111 only, assigned to one): 1.53
[5]; [13]
  intensity of GFP fluorescence relative to control culture (KY02111 only, assigned to one): 0.35
[5]; [14]
  intensity of GFP fluorescence relative to control culture (KY02111 only, assigned to one): 2.03
[5]; [15]
  intensity of GFP fluorescence relative to control culture (KY02111 only, assigned to one): 0.05
[5]; [16]
  intensity of GFP fluorescence relative to control culture (KY02111 only, assigned to one): 3.24
[5]
  cardiac differentiation (screening conclusion): promoted
[2]
  expression level of NODAL: not significantly different
  expression of MSGN1, T and MIXL1: reduced
[3]; [8]
  increase of cardiac differentiation: two- to three-fold

## COc1ccc(CC(=O)Nc2nc3ccc(I)cc3s2)cc1OC [KY01-I, 2-(2-(3,4-dimethoxyphenyl)acetamido)-6-iodobenzothiazole]
[6]
  effect of inducing cardiac differentiation: found to have the effect of inducing cardiac differentiation

## CCS(=O)(=O)N(C)[C@H]1c2cc(C#N)ccc2OC(C)(C)[C@@H]1O [Chromanol293B]
[7]
  increase in APD90, cells from suspension culture compared with cells from adhesion culture: significantly higher

## CCCOc1ccc(CCC(=O)Nc2nc3ccc(I)cc3s2)cc1OC [SO2077, 2-(3-(3-methoxy-4-propoxyphenyl)propanamido)-6-iodobenzothiazole]
[6]
  effect of inducing cardiac differentiation: found to have the effect of inducing cardiac differentiation
